Measured values from paper PMC3118575 (Bioconjugate chemistry, 2011).

How the values were obtained:
U87MG cells = experiment: NIR fluorescence microscopy of fixed U87MG cells; format: cell-based, human
[1] = system: MMP- and αvβ3 integrin receptor-positive U87MG tumor; experiment: In vivo NIR fluorescence imaging of U87MG tumor-bearing mice; settings: for Clearance from the blood and other organs / Fluorescent signals in the tumor over time: 0.5 nmol injected
MMP-2 = experiment: In vitro MMP-2 enzyme specificity; format: biochemical
U87MG tumor = experiment: Ex vivo biodistribution in tumors and organs; set-up: species or system mice; settings: tumors and organs removed after 4 h time point; n = 3

Row | Structure (SMILES) | Binding with receptor blocking by excess c(RGDyK) (U87MG cells; 30 min at 37 °C, blocking dose of c(RGDyK) 10 µM) | Fluorescent signals on cells (U87MG cells; 30 min incubation at 37 °C, without blocking) | Clearance from the blood and other organs ([1]; imaging for 4 h) | Fluorescent signals in the tumor over time ([1]; imaging for 4 h) | Recovery of fluorescence at different MMP-2 concentrations (MMP-2; MMP-2 0, 2, 5, 10, 20, 40 nM, 80 min incubation, n = 3) | Fluorescence recovery in the presence of MMP inhibitor (MMP-2; MMP-2 with homophenylalanine-hydroxamine acid based broad spectrum MMP inhibitor) | NIR fluorescence signal from the tumor with MMP inhibitor ([1]; 3 nmol i.v., MMP inhibitor intratumorally injected 30 min before) | Tumor uptake with excess unlabeled c(RGDyK) ([1]; 30 min post-injection, c(RGDyK) 200 nmol) | NIR fluorescent images compared to 6 ([1]; intravenous, 3 nmol of 4, from 1 h post-injection) | Visualization of MMP expression in MMP-positive tumor ([1]; intravenous, 4 at 3 nmol, imaging for 4 h) | Ex vivo biodistribution (U87MG tumor)
1 | CCN1C(=CC=CC=CC2=[N+](CCCCCC(=O)NCC(=O)N3CCC[C@H]3C(=O)N[C@@H](CC(C)C)C(=O)NCC(=O)N[C@H](C(=O)N[C@@H](CCCNC(=N)N)C(=O)NCC(=O)N[C@@H](CCCCN)C(=O)NCC(=O)NCC(=O)NCCCC[C@@H]3NC(=O)[C@@H](Cc4ccc(O)cc4)NC(=O)[C@H](CC(=O)O)NC(=O)CNC(=O)[C@H](CCCNC(=N)N)NC3=O)C(C)C)c3ccc4c(S(=O)(=O)O)cc(S(=O)(=O)O)cc4c3C2(C)C)C(C)(C)c2c1ccc1c(S(=O)(=O)[O-])cc(S(=O)(=O)O)cc21 [compound 5] | significantly decreased binding | strong positive fluorescent signals on the cell membranes | slowly cleared from the blood and other organs | gradually increased fluorescent signals in the tumor |  |  |  |  |  |  | 
2 | N=C(N)NCCC[C@@H]1NC(=O)[C@H](CCCCN)NC(=O)[C@@H](Cc2ccc(O)cc2)NC(=O)[C@H](CC(=O)O)NC(=O)CNC1=O [compound 7, reference compound] |  |  | slowly cleared from the blood and other organs | gradually increased fluorescent signals in the tumor |  |  |  |  |  |  | 
3 | CCN(CC)c1ccc2nc3ccc(N=Nc4ccc(N(C)CCCC(=O)NCCCC[C@H](NC(=O)CNC(=O)[C@H](CCCNC(=N)N)NC(=O)[C@@H](NC(=O)CNC(=O)[C@H](CC(C)C)NC(=O)[C@@H]5CCCN5C(=O)CNC(=O)CCCCC[N+]5=C(C=CC=CC=C6N(CC)c7ccc8c(S(=O)(=O)O)cc(S(=O)(=O)O)cc8c7C6(C)C)C(C)(C)c6c5ccc5c(S(=O)(=O)O)cc(S(=O)(=O)O)cc65)C(C)C)C(=O)NCC(=O)NCC(=O)NCCCC[C@@H]5NC(=O)[C@@H](Cc6ccc(O)cc6)NC(=O)[C@H](CC(=O)O)NC(=O)CNC(=O)[C@H](CCCNC(=N)N)NC5=O)cc4)cc3[n+](-c3ccccc3)c2c1 [compound 4] |  |  |  |  | dependent on the MMP-2 concentration | inhibited | significantly reduced | effectively blocked | brighter NIR fluorescent images compared to 6 | enabled visualization of MMP expression in an MMP-positive tumor | predominantly activated in the tumors among other organs
